Here are results for three molecules from patent publication US20040058056A1, “Drug diffusion coatings, applications and methods” (priority 2003, published 2004).

What all share (type): physicochemical
Data set [1] in a line: Elution of NPC-15199 from PHEMA-coated stainless steel coupons with TMCTS plasma membrane. Conditions: buffered saline pH 7.4, room temperature. The protocol: N-(9-fluorenylmethoxycarbonyl)-L-leucine (NPC-15199), an anti-inflammatory drug, was coated on a stainless steel coupon by dip-coating the coupon in a mixture of 20 mM NPC-15199 in a 60:40 solution of acetone:water containing 7.5% poly(2-hydroxyethyl methacrylate) (“PHEMA”). The coupon was then air dried for about 5 minutes at approximately 60° C. TMCTS plasma was deposited on different NPC-15199 coated coupons for 20, 40, 60 and 80 seconds, respectively. […] at pH 7.4 at room temperature. Elution of NPC-15199 was measured by change in absorbance using a spectrophotometer.
The plasma was generated at 83 W and 55 mTorr with a mass flow rate of 84 sccm; under these conditions a micro-thin siloxane membrane is deposited on the targeted surface, with the thickness directly related to the length of time of plasma deposition.

Data set [2] can be described thus: Elution of daunomycin from PHEMA-coated stainless steel coupons with TMCTS plasma membrane. Conditions: buffered saline pH 7.4; absorbance at 480 nm; different TMCTS plasma deposition times. How it is done: Before drug application and plasma coating to 0.71 cm×0.71 cm 316 stainless steel coupon surfaces, all the coupons were cleaned with Acationox detergent, rinsed exhaustively with water, and air-dried. The coupons were then dip-coated in 80% ethanol containing 5% PHEMA and 5 mg/ml of daunomycin. After dipping, the coupons were wicked to remove excess solution, and air-dried under a gentle flow of warm air. Thereafter, the coated coupons were stored in the dark. The drug-coated coupons were then plasma-deposited with TMCTS for varying amounts of time. The plasma was generated at 83 W and 55 mTorr with a mass flow rate of 84 sccm of TMCTS monomer vapor. The coating thickness could be precisely controlled by plasma deposition time, with a coating thickness in the range of 5 to 200 nm.
The coupons were eluted in buffered saline at pH 7.4. The eluted drug was measured spectrophotometrically at 480 nm for daunomycin. The absorbance change was proportional to the concentration of daunomycin.

Data set [3] in a line: Elution of rapamycin from TMCTS plasma-coated stainless steel coupons in porcine serum. The protocol: The elution time of rapamycin from the surface of stainless steel coupons was evaluated as a function of plasma deposition time. One side of stainless steel coupons was coated with 100±10 μg of rapamycin dissolved in chloroform (0.2%, w/v). After air drying at room temperature, the coated surfaces were plasma coated with TMCTS. The plasma was generated at 83 W and 55 mTorr with a mass flow rate of 84 sccm at various time lengths between 30 and 300 seconds. The coated coupons were extracted with porcine serum mixed with 0.02% NaN3 as the preservative at 37° C. The remaining amounts of the drug on the coupon was extracted with 2 ml of methanol for 2 hours at room temperature and assayed by HPLC at 277 nm, utilizing an HPLC system calibrated with known amounts of rapamycin.

Consider `CC(C)C[C@H](NC(=O)OCC1c2ccccc2-c2ccccc21)C(=O)O` [NPC-15199, N-(9-fluorenylmethoxycarbonyl)-L-leucine], for which the “T1/2 (half-elution time)” value in data set [1] (TMCTS plasma deposition time 20 seconds) amounted to 0.833 min; in data set [1] (TMCTS plasma deposition time 40 seconds), 1.67 min; in data set [1] (TMCTS plasma deposition time 60 seconds) it was 2.5 min; in data set [1] (TMCTS plasma deposition time 80 seconds), 4 min.
Turning to `COc1cccc2c1C(=O)c1c(O)c3c(c(O)c1C2=O)C[C@@](O)(C(C)=O)C[C@@H]3O[C@H]1C[C@H](N)[C@H](O)[C@H](C)O1` [daunomycin], the drug diffusion time entry in data set [2] is “controlled by the TMCTS coating thickness”.
With `CO[C@H]1C[C@@H]2CC[C@@H](C)[C@@](O)(O2)C(=O)C(=O)N2CCCC[C@H]2C(=O)O[C@H]([C@H](C)C[C@@H]2CC[C@@H](O)[C@H](OC)C2)CC(=O)[C@H](C)/C=C(\C)[C@@H](O)[C@@H](OC)C(=O)[C@H](C)C[C@H](C)/C=C/C=C/C=C/1C` [rapamycin], the “% Remaining” value was found to be 100% in data set [3] (0 (uncoated) TMCTS deposition, elution time 0 hours); 0% in data set [3] (0 (uncoated) TMCTS deposition, elution time 17 hours, porcine serum 37° C.); 2.6% in data set [3] (TMCTS deposition 30 seconds, elution time 64 hours, porcine serum 37° C.); 33.2% in data set [3] (TMCTS deposition 60 seconds, elution time 64 hours, porcine serum 37° C.); 67.7% in data set [3] (TMCTS deposition 120 seconds, elution time 47.5 hours, porcine serum 37° C.); 76.3% in data set [3] (TMCTS deposition 180 seconds, elution time 24 hours, porcine serum 37° C.). The “% Remaining” value in data set [3] (TMCTS deposition 240 seconds, elution time 24 hours, porcine serum 37° C.) was determined as 93.6%; in data set [3] (TMCTS deposition 300 seconds, elution time 47.5 hours, porcine serum 37° C.), 91.9%. Further, the “Estimated Half-Life” value was 12 h in data set [3] (TMCTS deposition 30 seconds, porcine serum 37° C.); 41 h in data set [3] (TMCTS deposition 60 seconds, porcine serum 37° C.); 84 h in data set [3] (TMCTS deposition 120 seconds, porcine serum 37° C.); 94 h in data set [3] (TMCTS deposition 180 seconds, porcine serum 37° C.); 211 h in data set [3] (TMCTS deposition 240 seconds, porcine serum 37° C.); 360 h in data set [3] (TMCTS deposition 300 seconds, porcine serum 37° C.).
